Experimental data as given in PubChem BioAssay AID1919005 (Molecular Pharmacology Branch, DTP, NCI, 2023).
“And” between values parts separate entries of the source, which are not always exact repeats. Identical values can stand only once.

Test system: 855422-203-R-J1-PDC complex spheroid growth
Test: Anticancer human tumor 855422-203-R-J1-PDC patient-derived bladder carcinoma cell line growth inhibition [AhR]
Settings: for viability, T/C: stronger effect = lower value
Procedure, shortened: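 Spheroids combined tumor cells with HUVEC endothelial cells and human MSCs as stroma. AhR antagonists were paired with standard or investigational drugs, each dosed in half-log steps down from near clinical Cmax, or from 10 microM where Cmax was unknown.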

[1] = curve of first compound, second compound 0.1 µM
[2] = curve of first compound, second compound 0.316 µM
[3] = curve of first compound, second compound 1 µM
[4] = curve of first compound, second compound 3.16 µM
[5] = curve of first compound, second compound 10 µM
[6] = second compound 0.1 µM, first compound 0.0316 µM
[7] = second compound 0.1 µM, first compound 0.1 µM
[8] = second compound 0.316 µM, first compound 0.0316 µM
[9] = second compound 0.316 µM, first compound 0.1 µM
[10] = second compound 1 µM, first compound 0.0316 µM
[11] = second compound 1 µM, first compound 0.1 µM
[12] = second compound 3.16 µM, first compound 0.0316 µM
[13] = second compound 3.16 µM, first compound 0.1 µM
[14] = second compound 10 µM, first compound 0.0316 µM
[15] = second compound 10 µM, first compound 0.1 µM
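Note: spheroids exposed to agents for seven days before readout.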
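Throughout, for viability, T/C: percent of DMSO vehicle control luminescence viability.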

COc1cc(C2c3cc4c(cc3C(OC3OC5COC(C)OC5C(O)C3O)C3COC(=O)C23)OCO4)cc(OC)c1O (configuration not stated)
viability, T/C (compound 0.0316 µM): 96.6% and 94.9% and 94.2% | viability, T/C (compound 0.1 µM): 98.4% and 97.4% and 106% | viability, T/C (compound 0.316 µM): 61% and 81.5% and 67.7% | viability, T/C (compound 1 µM): 14.2% and 22% and 29.3% | viability, T/C (compound 3.16 µM): 9.05% and 11.6% and 17.3% | viability, T/C (compound 10 µM): 4.28% and 5.57% and 7.14% | IC50 (curve of compound): 417 nM and 584 nM and 553 nM

O=C(c1cc(Cc2n[nH]c(=O)c3ccccc23)ccc1F)N1CCN(C(=O)C2CC2)CC1 + CC(CO)NC(=O)c1cc(-c2ccc(Cl)cc2)nn(-c2cnn(C)c2)c1=O
IC50 [1]: > 10000 nM | IC50 [2]: > 10000 nM | IC50 [3]: > 10000 nM | IC50 [4]: > 10000 nM | IC50 [5]: > 10000 nM | viability, T/C [6]: 105% | viability, T/C [7]: 107% | viability, T/C (second compound 0.1 µM, first compound 0.316 µM): 117% | viability, T/C (second compound 0.1 µM, first compound 1 µM): 110% | viability, T/C (second compound 0.1 µM, first compound 3.16 µM): 98.8% | viability, T/C (second compound 0.1 µM, first compound 10 µM): 95.2% | viability, T/C [8]: 118% | viability, T/C [9]: 107% | viability, T/C (second compound 0.316 µM, first compound 0.316 µM): 110% | viability, T/C (second compound 0.316 µM, first compound 1 µM): 106% | viability, T/C (second compound 0.316 µM, first compound 3.16 µM): 105% | viability, T/C (second compound 0.316 µM, first compound 10 µM): 97.9% | viability, T/C [10]: 120% | viability, T/C [11]: 115% | viability, T/C (second compound 1 µM, first compound 0.316 µM): 115% | viability, T/C (second compound 1 µM, first compound 1 µM): 108% | viability, T/C (second compound 1 µM, first compound 3.16 µM): 113% | viability, T/C (second compound 1 µM, first compound 10 µM): 101% | viability, T/C [12]: 107% | viability, T/C [13]: 112% | viability, T/C (second compound 3.16 µM, first compound 0.316 µM): 105% | viability, T/C (second compound 3.16 µM, first compound 1 µM): 105% | viability, T/C (second compound 3.16 µM, first compound 3.16 µM): 96.9% | viability, T/C (second compound 3.16 µM, first compound 10 µM): 106% | viability, T/C [14]: 109% | viability, T/C [15]: 115% | viability, T/C (second compound 10 µM, first compound 0.316 µM): 98% | viability, T/C (second compound 10 µM, first compound 1 µM): 97.1% | viability, T/C (second compound 10 µM, first compound 3.16 µM): 105% | viability, T/C (second compound 10 µM, first compound 10 µM): 102%

CC(C)CC(NC(=O)C(Cc1ccccc1)NC(=O)c1cnccn1)B(O)O (configuration not stated) + Cc1ccccc1N=Nc1ccc(NC(=O)c2ccnn2C)c(C)c1
IC50 [1]: 5.94 nM | IC50 [2]: 5.86 nM | IC50 [3]: 5.66 nM | IC50 [4]: 5.19 nM | IC50 [5]: 4.16 nM | viability, T/C (second compound 0.1 µM, first compound 0.000949 µM): 108% | viability, T/C (second compound 0.1 µM, first compound 0.003 µM): 135% | viability, T/C (second compound 0.1 µM, first compound 0.00949 µM): 0.86% | viability, T/C (second compound 0.1 µM, first compound 0.03 µM): 0.84% | viability, T/C (second compound 0.1 µM, first compound 0.0949 µM): 1.35% | viability, T/C (second compound 0.1 µM, first compound 0.3 µM): 0.12% | viability, T/C (second compound 0.316 µM, first compound 0.000949 µM): 118% | viability, T/C (second compound 0.316 µM, first compound 0.003 µM): 121% | viability, T/C (second compound 0.316 µM, first compound 0.00949 µM): 0.21% | viability, T/C (second compound 0.316 µM, first compound 0.03 µM): 0.02% | viability, T/C (second compound 0.316 µM, first compound 0.0949 µM): 0.02% | viability, T/C (second compound 0.316 µM, first compound 0.3 µM): 0.1% | viability, T/C (second compound 1 µM, first compound 0.000949 µM): 108% | viability, T/C (second compound 1 µM, first compound 0.003 µM): 115% | viability, T/C (second compound 1 µM, first compound 0.00949 µM): 0.18% | viability, T/C (second compound 1 µM, first compound 0.03 µM): 0.04% | viability, T/C (second compound 1 µM, first compound 0.0949 µM): 0.02% | viability, T/C (second compound 1 µM, first compound 0.3 µM): 0.11% | viability, T/C (second compound 3.16 µM, first compound 0.000949 µM): 100% | viability, T/C (second compound 3.16 µM, first compound 0.003 µM): 94.6% | viability, T/C (second compound 3.16 µM, first compound 0.00949 µM): 0.91% | viability, T/C (second compound 3.16 µM, first compound 0.03 µM): 0.03% | viability, T/C (second compound 3.16 µM, first compound 0.0949 µM): 0.09% | viability, T/C (second compound 3.16 µM, first compound 0.3 µM): 0.09% | viability, T/C (second compound 10 µM, first compound 0.000949 µM): 85% | viability, T/C (second compound 10 µM, first compound 0.003 µM): 69.6% | viability, T/C (second compound 10 µM, first compound 0.00949 µM): 0.28% | viability, T/C (second compound 10 µM, first compound 0.03 µM): 0.11% | viability, T/C (second compound 10 µM, first compound 0.0949 µM): 0.12% | viability, T/C (second compound 10 µM, first compound 0.3 µM): 0.16%

CC[C@@]1(O)C(=O)OCc2c1cc1n(c2=O)Cc2cc3c(CN(C)C)c(O)ccc3nc2-1 + Cc1cncc(-c2nc(NCCc3c[nH]c4ccccc34)c3ncn(C(C)C)c3n2)c1
IC50 [1]: 37.8 nM | IC50 [2]: 33.7 nM | IC50 [3]: 25.7 nM | IC50 [4]: 18.1 nM | IC50 [5]: < 0.316 nM | viability, T/C (second compound 0.1 µM, first compound 0.000316 µM): 95.4% | viability, T/C (second compound 0.1 µM, first compound 0.001 µM): 85.9% | viability, T/C (second compound 0.1 µM, first compound 0.00316 µM): 103% | viability, T/C (second compound 0.1 µM, first compound 0.01 µM): 91.5% | viability, T/C [6]: 56.8% | viability, T/C [7]: 13.1% | viability, T/C (second compound 0.316 µM, first compound 0.000316 µM): 89.6% | viability, T/C (second compound 0.316 µM, first compound 0.001 µM): 87.1% | viability, T/C (second compound 0.316 µM, first compound 0.00316 µM): 93.6% | viability, T/C (second compound 0.316 µM, first compound 0.01 µM): 89.6% | viability, T/C [8]: 52.2% | viability, T/C [9]: 11.6% | viability, T/C (second compound 1 µM, first compound 0.000316 µM): 91.4% | viability, T/C (second compound 1 µM, first compound 0.001 µM): 90.6% | viability, T/C (second compound 1 µM, first compound 0.00316 µM): 80.8% | viability, T/C (second compound 1 µM, first compound 0.01 µM): 78.1% | viability, T/C [10]: 43.6% | viability, T/C [11]: 12% | viability, T/C (second compound 3.16 µM, first compound 0.000316 µM): 77.3% | viability, T/C (second compound 3.16 µM, first compound 0.001 µM): 83.7% | viability, T/C (second compound 3.16 µM, first compound 0.00316 µM): 74.3% | viability, T/C (second compound 3.16 µM, first compound 0.01 µM): 68.5% | viability, T/C [12]: 33% | viability, T/C [13]: 11.7% | viability, T/C (second compound 10 µM, first compound 0.000316 µM): 13.4% | viability, T/C (second compound 10 µM, first compound 0.001 µM): 8.89% | viability, T/C (second compound 10 µM, first compound 0.00316 µM): 4.65% | viability, T/C (second compound 10 µM, first compound 0.01 µM): 6.18% | viability, T/C [14]: 3.7% | viability, T/C [15]: 1.73%
